This note sets out measurements from PMC10547880, “Synthesis and biological evaluation of novel 1,2,3-triazole hybrids of cabotegravir: identification of potent antitumor activity against lung cancer” (Frontiers in Pharmacology, 2023).

One may read the IC50 as the point on the concentration scale where inhibition reaches its midpoint.

Each structure is given as a SMILES string.

What all share (format): cell-based, Human
For one data set, the system named is LO2 cells. Nature of the data set: CCK8 cell viability, normal cell line LO2. The note with it: LO2 normal liver cells, 25 μM, 72 h. The protocol: (§1) Human lung cancer cell line H460 and H1299, human liver normal cell line LO2 were bought from ATCC. DMEM or RPMI 1640 was used as the cell culture medium with 10% FBS and 1% penicillin/streptomycin. Cells were maintained in an incubator with 37°C humidified atmosphere and 5% CO2.
(§2) Cell viability and IC50 values were determined using the CCK8 assay kit. Cells were seeded at a density of 5 × 10^3 cells per well in a 96-well plate. After overnight adhesion, 25 μM of compounds or vehicle control DMSO which all dissolved in the culture medium were added to cells and cultured for 48 h or 72 h. CCK8 reagent, dissolved in the medium, was then added to cells and incubated for 1 h. The absorbance at 450 nm was measured using a microplate spectrophotometer (Thermo). Cell viability was calculated, with the untreated group taken as 100%. For IC50 values determination, different concentrations (0, 0.4 μM, 2 μM, 10 μM, 20 μM, 50 μM) of compounds were added to cells for 72 h. Subsequent CCK8 measurement allowed the calculation of inhibition percentage based on cell viability. The IC50 values were computed by the prism statistical software. The CCK-8 assay was conducted three times and the repetitions in each time were at least three. All the values were expressed as Mean ± SD, p < 0.05 was considered statistically significant.
(§3) In order to assess the potential cytotoxicity of the synthesized compounds, we selected two types of human non-small-cell lung cancer cell line, H460 and H1299. Cell viability and cytotoxicity were evaluated using the CCK8 assay ([Xu et al., 2018]). The cells were treated with 25 μM of compounds 5a-5s and 6a-6i for 48h and 72 h. […] In contrast, no compounds managed to reduce H1299 cell viability to less than 50%, yet compounds 5i, 5m, 6h and 6i achieved cell viability rates below 70%. […] It is worth noting that minimal effects on the cell viability of the normal cell line LO2 were observed when exposed to these compounds. Further, we determined the half-maximal inhibitory concentration (IC50) of selected compounds against H460 cells, the results of which were summarized in Table 3.

A further data set relates to H1299 cells. Nature of the data set: CCK8 cell viability, H1299. The note with it: H1299, 25 μM. The protocol:
as §1, §2, §3

The next data set has as its system H460 cells. Nature of the data set: CCK8 cell viability and IC50 measurement, H460. Conditions: for Cell viability: H460, 25 μM; for IC50: H460, 72 h, CCK8. The protocol: as §1, §2, §3

Consider `COc1c2n(cc(C(=O)Nc3cccc(-c4cn(Cc5ccccc5C)nn4)c3)c1=O)CC1OCC(C)N1C2=O` (stereo not shown) [Compound 6c], for which the Cell viability worked out at 103.41% with LO2 cells; 110.58% in the data set on H1299 cells (48 h); 97.63% in the data set with H1299 cells (72 h); 105.51% in the data set on H460 cells (48 h); 101.80% in the data set with H460 cells (72 h).
In the same order, the values of `COc1c2n(cc(C(=O)Nc3cccc(-c4cn(Cc5ccc(C(F)(F)F)cc5)nn4)c3)c1=O)CC1OCC(C)N1C2=O` (stereo not shown) [Compound 6d] are 104.58%, 113.99%, 93.95%, 113.95% and 105.14%.
As to `COc1c2n(cc(C(=O)Nc3cccc(-c4cn(Cc5ccccc5C(F)(F)F)nn4)c3)c1=O)CC1OCC(C)N1C2=O` (stereo not shown) [Compound 6e], the Cell viability worked out at 127.55% in the data set on LO2 cells; 127.00% with H1299 cells (48 h); 92.15% in the data set on H1299 cells (72 h); 77.85% with H460 cells (48 h); 60.74% with H460 cells (72 h). Moreover, half-maximal inhibition in the data set with H460 cells (IC50) was put at 22.88 ± 0.13 µM.
Regarding `COc1c2n(cc(C(=O)Nc3cccc(-c4cn(Cc5ccc(Cl)cc5)nn4)c3)c1=O)CC1OCC(C)N1C2=O` (stereo not shown) [Compound 6f], the Cell viability in the data set on LO2 cells is 130.96%; with H1299 cells (48 h), 104.20%; with H1299 cells (72 h), 96.47%; in the data set with H460 cells (48 h), 91.99%; with H460 cells (72 h), 94.49%.
As to `COc1cccc(Cn2cc(-c3cccc(NC(=O)c4cn5c(c(OC)c4=O)C(=O)N4C(C)COC4C5)c3)nn2)c1` (stereo not shown) [Compound 6g], the Cell viability was determined as 130.54% in the data set on LO2 cells; 91.06% in the data set with H1299 cells (48 h); 94.37% with H1299 cells (72 h); 93.36% in the data set on H460 cells (48 h); 95.01% with H460 cells (72 h).
Consider `COc1c2n(cc(C(=O)Nc3cccc(-c4cn(Cc5ccccc5Cl)nn4)c3)c1=O)CC1OCC(C)N1C2=O` (stereo not shown) [Compound 6h], for which the Cell viability in the data set on LO2 cells is 88.86%; in the data set with H1299 cells (48 h) it was 126.87%. For the same molecule, the “cell proliferation inhibition rate” value in the data set with H460 cells (H460, 72-h treatment) is “exceed 50%”. For the same molecule, in the data set on H460 cells, half-maximal inhibition (IC50) was put at 15.86 ± 0.09 µM.
`COc1c2n(cc(C(=O)Nc3cccc(-c4cn(Cc5cccc(F)c5)nn4)c3)c1=O)CC1OCC(C)N1C2=O` (stereo not shown) [Compound 6i]: the Cell viability in the data set on LO2 cells amounted to 127.14%; in the data set on H1299 cells (48 h), 99.47%; with H460 cells (48 h), 97.90%; with H460 cells (72 h) it was 95.51%.
